Assay results taken from publication PMC9958325 (Nature Communications, 2023).
Values joined by “and” are separate entries in the source; they are usually repeats but may differ in a detail not shown here. Equal entries are not always repeated. Where two headings read alike, the source gives them in different places.

Experiments:
SARS-CoV-2^WK-521 = test: microbe, parasite or virus in culture; type: cell-based; conditions: read-out: EC50 in cell-based assays
SARS-CoV-2 QHN001/α = test: microbe, parasite or virus in culture; type: cell-based
SARS-CoV-2 TY8-612/β = test: microbe, parasite or virus in culture; type: cell-based
SARS-CoV-2 TY7-501/γ = test: microbe, parasite or virus in culture; type: cell-based
SARS-CoV-2 K1734/δ = test: microbe, parasite or virus in culture; type: cell-based
SARS-CoV-2 5356/κ = test: microbe, parasite or virus in culture; type: cell-based
[1] = test system: SARS-CoV-2 Delta, BA.1 and BA.2 variants; parameters: species or system hACE2 knock-in mice; conditions: mouse, in vivo, ip
[2] = test system: SARS-CoV-2 Delta, BA.1 and BA.2 variants; parameters: species or system hACE2 knock-in mice; conditions: mouse, in vivo
Glycine-added M^pro = Glycine-added M^pro (Severe acute respiratory syndrome coronavirus 2, UniProt P0DTD1)
[3] = read-out: EC50 against QHN001/α
[4] = read-out: EC50 α, individual assays
[5] = read-out: EC50 against TY8-612/β
[6] = read-out: EC50 β, individual assays
[7] = read-out: EC50 against Y7-501/γ
[8] = read-out: EC50 γ, individual assays
[9] = read-out: EC50 δ, individual assays
[10] = read-out: EC50 κ, individual assays

| SMILES | EC50 (SARS-CoV-2 QHN001/α; [3]) [µM] | EC50 (SARS-CoV-2 QHN001/α; read-out: EC50 α, Average) [µM] | EC50 (SARS-CoV-2 QHN001/α; [4]) | EC50 (SARS-CoV-2 TY8-612/β; [5]) [µM] | EC50 (SARS-CoV-2 TY8-612/β; read-out: EC50 β, Average) [µM] | EC50 (SARS-CoV-2 TY8-612/β; [6]) | EC50 (SARS-CoV-2 TY7-501/γ; [7]) [µM] | EC50 (SARS-CoV-2 TY7-501/γ; read-out: EC50 γ, Average) [µM] | EC50 (SARS-CoV-2 TY7-501/γ; [8]) | EC50 (SARS-CoV-2 K1734/δ; read-out: EC50 δ, Average) [µM] | EC50 (SARS-CoV-2 K1734/δ; [9]) | EC50 (SARS-CoV-2 5356/κ; read-out: EC50 κ, Average) [µM] | EC50 (SARS-CoV-2 5356/κ; [10]) | Effect on lung virus titers (in words) [1] | further results |
| --- | --- | --- | --- | --- | --- | --- | --- | --- | --- | --- | --- | --- | --- | --- | --- |
| CC(C)(C)[C@H](NC(=O)C(F)(F)F)C(=O)N1C[C@H]2[C@@H]([C@H]1C(=O)N[C@@H](C[C@@H]1CCNC1=O)C(=O)c1nc3c(F)cccc3s1)C2(C)C [TKB245] | 0.042 ± 0.042 | 0.042 | 0.09 µM and 0.02 µM and 0.0158 µM | 0.028 ± 0.009 | 0.0284 | 0.019 µM and 0.036 µM | 0.056 ± 0.045 | 0.0561 | 0.01 µM and 0.0582 µM and 0.1 µM | 0.0304 | 0.0276 µM and 0.0336 µM | 0.0206 | 0.0192 µM and 0.0224 µM | considerably reduced titers of both variants in lung | EC50 (SARS-CoV-2^WK-521): ~0.03 µM; Chest micro-CT images vs vehicle control [2]: No relevant differences were; Lung immunohistochemistry, SARS-CoV-2 nucleocapsid protein vs vehicle group [2]: no relevant change in number |
| CC(C)(C)[C@H](NC(=O)C(F)(F)F)C(=O)N1C[C@H]2[C@@H]([C@H]1C(=S)N[C@@H](C[C@@H]1CCNC1=O)C(=O)c1nc3c(F)cccc3s1)C2(C)C [TKB248] | 0.3 ± 0.001 | 0.3 | 0.3 µM and 0.299 µM | 0.287 ± 0.005 | 0.288 | 0.29 µM and 0.291 µM and 0.282 µM | 0.228 ± 0.061 | 0.228 | 0.288 µM and 0.165 µM | 0.274 | 0.27 µM and 0.311 µM and 0.24 µM | 0.18 | 0.215 µM and 0.145 µM | exerted comparable efficacy against both Omicron BA.1 and BA.2 variants | EC50 (SARS-CoV-2 K1734/δ; read-out: EC50 against K1734/δ): 0.273 ± 0.036 µM; EC50 (SARS-CoV-2 5356/κ; read-out: EC50 against 5356/k): 0.18 ± 0.035 µM; Peak ratio, Dimer-1X compound (Glycine-added M^pro): 9.9%; Peak ratio, Dimer-2X compound (Glycine-added M^pro): 28.4% |
| CC(C)(C)[C@H](NC(=O)C(F)(F)F)C(=O)N1C[C@H]2[C@@H]([C@H]1C(=O)N[C@H](C#N)C[C@@H]1CCNC1=O)C2(C)C [Nirmatrelvir, reference compound] | – | – | 1.42 µM | – | – | 1.7 µM and 1.23 µM | – | – | 2.2 µM and 2.78 µM | – | 1.42 µM and 1.57 µM | – | 1.65 µM and 2.27 µM and 1.06 µM | – | EC50 (SARS-CoV-2 QHN001/α; Severe acute respiratory syndrome coronavirus 2, Vero C1008, read-out: EC50 against QHN001/α): 1.98 ± 0.559 µM; EC50 (SARS-CoV-2 QHN001/α; Severe acute respiratory syndrome coronavirus 2, Vero C1008, read-out: EC50 α, Average): 1.98 µM; EC50 (SARS-CoV-2 QHN001/α; Severe acute respiratory syndrome coronavirus 2, Vero C1008, read-out: EC50 α, individual assays): 2.54 µM; EC50 (SARS-CoV-2 TY8-612/β; Severe acute respiratory syndrome coronavirus 2, Vero C1008, read-out: EC50 against TY8-612/β): 1.5 ± 0.24 µM; EC50 (SARS-CoV-2 TY8-612/β; Severe acute respiratory syndrome coronavirus 2, Vero C1008, read-out: EC50 β, Average): 1.5 µM; EC50 (SARS-CoV-2 TY8-612/β; Severe acute respiratory syndrome coronavirus 2, Vero C1008, read-out: EC50 β, individual assays): 1.56 µM; EC50 (SARS-CoV-2 TY7-501/γ; Severe acute respiratory syndrome coronavirus 2, Vero C1008, read-out: EC50 against Y7-501/γ): 2.49 ± 0.292 µM; EC50 (SARS-CoV-2 TY7-501/γ; Severe acute respiratory syndrome coronavirus 2, Vero C1008, read-out: EC50 γ, Average): 2.49 µM; EC50 (SARS-CoV-2 TY7-501/γ; Severe acute respiratory syndrome coronavirus 2, Vero C1008, read-out: EC50 γ, individual assays): 2.5 µM; EC50 (SARS-CoV-2 K1734/δ; Severe acute respiratory syndrome coronavirus 2, Vero C1008, read-out: EC50 against K1734/δ): 1.5 ± 0.078 µM; EC50 (SARS-CoV-2 K1734/δ; Severe acute respiratory syndrome coronavirus 2, Vero C1008, read-out: EC50 δ, individual assays): 1.51 µM; EC50 (SARS-CoV-2 5356/κ; Severe acute respiratory syndrome coronavirus 2, Vero C1008, read-out: EC50 against 5356/k): 1.66 ± 0.606 µM; EC50 (SARS-CoV-2 5356/κ; Severe acute respiratory syndrome coronavirus 2, Vero C1008, read-out: EC50 κ, Average): 1.66 µM |
